Results as given in patent US20230263742A1, “A LIPID” (Stemirna Therapeutics Co., Ltd., priority 2021, published 2023).

How the values were obtained:
C2C12 cells = assay: In vitro cell Luc expression, C2C12; format: cell-based; conditions: 100 ng Luc mRNA-LNP, 24 h
Description: (§1) In vitro cell expression evaluation method: C2C12 cells, HepG2 cells, A20 cells were cultured, and 100,000 cells per well were plated on a 96-well plate. 100 ng of LNP samples were mixed with the cells and incubated for 24 hours (n=3), and then the expression was detected using luciferase quantitative kit 24 h after administration.

HepG2 cells = assay: In vitro cell Luc expression, HepG2; format: cell-based; conditions: 100 ng Luc mRNA-LNP, 24 h
Description: as §1

cells = assay: Cytotoxicity, CCK-8 cell viability; format: cell-based; conditions: 200 ng LNP, 24 h, CCK-8, vs cells blank
Description: Evaluation method of cytotoxicity: 200 ng of LNP samples were mixed with cells and incubated for 24 h, then the viability was detected using CCK-8 cell viability detection kit. 10 μl of CCK-8 detection reagent was added to the transfected cells and the OD value was detected using a microplate reader at a detection wavelength of 450 nm. The cell viability percentage is obtained by comparing the OD value with that of the cells blank.

Balb/C mice [1] = assay: In vivo Luc expression after tail vein injection of Luc mRNA-LNP; conditions: 5 μg Luc mRNA-LNP tail vein, 6 hours
Description: In vivo expression evaluation method: 5 μg Luc (luciferase) mRNA-LNP solution of SW-II-118, SW-120, or SW-121 were injected into the tail vein of Balb/C mice. 6 hours after the administration, the mice are injected 0.15 mg/kg of […] substrate intraperitoneally. Within 15 minutes after the injection of the substrate, the fluorescence signal intensity was tested under a small animal in vivo imaging instrument.

Balb/C mice [2] = assay: Luc expression in injection site and liver site after intramuscular administration (Example 5); format: in vivo; conditions: 5 μg Luc mRNA-LNP (DSPC) intramuscularly, Balb/C mice n=3, 6 h
Description: Further bioluminescence studies were performed to investigate the delivery efficiency of nanoparticle compositions including various lipid compounds according to the present invention. The formulations containing reference cationic lipid M62, M63, M118, and M119 (corresponding to Compound 62, 63, 118, and 119 in PCT/US2018/022717 (WO2018/170306), respectively) were evaluated for comparison. Nanoparticle compositions including DSPC as an optimized phospholipid, cholesterol as a structural lipid, PEG-DMG as a PEG lipid, an RNA, and a compound above mentioned were prepared according to or via methods similar to those described in Examples 1 and 2. The ratios of the lipids were 50:10:38.5:1.5 mol % for the lipid of the present invention: DSPC: cholesterol: PEG-DMG. 5 μg of LNP solution containing luciferase mRNA was administered intramuscularly to Balb/C mice (n=3). 6 hours after administration, mice were injected intraperitoneally with 0.15 mg/kg of D-luciferin substrate. Within 15 minutes after the injection of the substrate, the fluorescence signal intensity in injection site and liver site were tested under a small animal in vivo imaging instrument. Tables 3-4 summarize the fluorescence signal intensity of the nanoparticle compositions including present invention lipids and the reference compounds in injection site and liver site.

A20 cells = assay: In vitro cell Luc expression, A20; format: cell-based; conditions: 100 ng Luc mRNA-LNP, 24 h
Description: as §1

[3] = Particle size, PDI and zeta potential by dynamic light scattering; format: physicochemical; conditions: for PDI / Zeta potential: Luc mRNA-LNP 50:10:38.5:1.5; for Size: Luc mRNA-LNP, lipid:phospholipid:cholesterol:PEG-DMG 50:10:38.5:1.5
Description: A Zetasizer Nano ZS (Malvern Instruments Ltd, Malvern, Worcestershire, UK) can be used to determine the particle size, the polydispersity index (PDI) and the zeta (ζ) potential of the nanoparticle compositions in 1×PBS in determining particle size and 15 mM PBS in determining zeta (ζ) potential.
The evaluation method of particle size and zeta potential: 50 μL LNP sample was diluted with 950 μL purified water to obtain the diluted LNP sample. The sample was placed in a dynamic light scattering laser particle size analyzer (Malvern, ZS-90) for testing.

## CCCCCCCCC(CCCCCCCC)OC(=O)CCCCCCCN(CCO)CCCCCCCC(=O)OCCc1ccc(CCCCCC)cc1 [SW-II-120]
C2C12 cells; phospholipid DAPC
  C2C12 cell, in vitro expression: 17847.5
C2C12 cells; phospholipid DMPE
  C2C12 cell, in vitro expression: 228078.5
C2C12 cells; phospholipid DOPE
  C2C12 cell, in vitro expression: 815187.5
C2C12 cells; phospholipid DPPC
  C2C12 cell, in vitro expression: 147377.5
C2C12 cells; phospholipid DPPE
  C2C12 cell, in vitro expression: 471290.5
C2C12 cells; phospholipid DSPC
  C2C12 cell, in vitro expression: 44819
C2C12 cells; phospholipid DSPE
  C2C12 cell, in vitro expression: 51132.5
HepG2 cells; phospholipid DAPC
  HepG2 cell, in vitro expression: 4555.5
HepG2 cells; phospholipid DMPE
  HepG2 cell, in vitro expression: 31448.5
HepG2 cells; phospholipid DOPE
  HepG2 cell, in vitro expression: 83649.5
HepG2 cells; phospholipid DPPC
  HepG2 cell, in vitro expression: 24199.5
HepG2 cells; phospholipid DPPE
  HepG2 cell, in vitro expression: 57343
HepG2 cells; phospholipid DSPC
  HepG2 cell, in vitro expression: 13068
HepG2 cells; phospholipid DSPE
  HepG2 cell, in vitro expression: 2482
cells; phospholipid DAPC
  Viability (%): 99.0%
cells; phospholipid DMPE
  Viability (%): 87.9%
cells; phospholipid DOPE
  Viability (%): 115.0%
cells; phospholipid DPPC
  Viability (%): 102.9%
cells; phospholipid DPPE
  Viability (%): 107.1%
cells; phospholipid DSPC
  Viability (%): 102.3%
cells; phospholipid DSPE
  Viability (%): 97.9%
Balb/C mice [1]; phospholipid DAPC
  In vivo expression: 39073333.3 p/sec/cm^2/sr
Balb/C mice [1]; phospholipid DMPE
  In vivo expression: 49736666.7 p/sec/cm^2/sr
Balb/C mice [1]; phospholipid DOPE
  In vivo expression: 5083666.7 p/sec/cm^2/sr
Balb/C mice [1]; phospholipid DPPC
  In vivo expression: 21307300.0 p/sec/cm^2/sr
Balb/C mice [1]; phospholipid DPPE
  In vivo expression: 7056000.0 p/sec/cm^2/sr
Balb/C mice [1]; phospholipid DSPC
  In vivo expression: 58040000.0 p/sec/cm^2/sr
Balb/C mice [1]; phospholipid DSPE
  In vivo expression: 128056666.7 p/sec/cm^2/sr
Balb/C mice [2]
  Luc expression in injection site, I.M. injection site, 6 h (ratio relative to SW-II-134-3 set as 1): 1.064
  Luc expression in liver site, Liver site upon I.M., 6 h (ratio relative to SW-II-137-1 set as 1): 1.318
A20 cells; phospholipid DAPC
  A20 cell, in vitro expression: 1764
A20 cells; phospholipid DMPE
  A20 cell, in vitro expression: 37055.5
A20 cells; phospholipid DOPE
  A20 cell, in vitro expression: 3578
A20 cells; phospholipid DPPC
  A20 cell, in vitro expression: 7015
A20 cells; phospholipid DPPE
  A20 cell, in vitro expression: 54823
A20 cells; phospholipid DSPC
  A20 cell, in vitro expression: 8101.5
A20 cells; phospholipid DSPE
  A20 cell, in vitro expression: 1599
[3]; phospholipid DAPC
  PDI: 0.28 ± 0.02
  Zeta potential: −4.82 ± 0.28 mV
  Size: 97.1 ± 1.6 nm
[3]; phospholipid DMPE
  PDI: 0.20 ± 0.02
  Zeta potential: −6.08 ± 0.43 mV
  Size: 92.7 ± 1.1 nm
[3]; phospholipid DOPE
  PDI: 0.13 ± 0.02
  Zeta potential: 2.09 ± 0.28 mV
  Size: 142.9 ± 1.9 nm
[3]; phospholipid DPPC
  PDI: 0.22 ± 0.01
  Zeta potential: −3.23 ± 2.95 mV
  Size: 92.97 ± 0.7 nm
[3]; phospholipid DPPE
  PDI: 0.15 ± 0.04
  Zeta potential: −5.04 ± 1.16 mV
  Size: 115.3 ± 3.7 nm
[3]; phospholipid DSPC
  PDI: 0.20 ± 0.01
  Zeta potential: 0.61 ± 0.55 mV
  Size: 88.7 ± 1.1 nm
[3]; phospholipid DSPE
  PDI: 0.22 ± 0.02
  Zeta potential: −5.15 ± 2.37 mV
  Size: 106.5 ± 5.5 nm
